From patent US20070207975A1, “Materials and methods for treating and preventing Her-2/neu overexpressing, FAS-elevated cancer cells” (EVANSTON NORTHWESTERN HEALTHCARE, priority 2006, published 2007)

Columns and labels:
[1] = tested on: p185^Her-2/neu; assay: Flow cytometric analysis of cell surface-associated p185Her-2/neu; assay type: cell-based, human; details: scavenger of reactive oxygen species added to OA treatment
Source text: FIG. 1. […] FIG. 2. […] The amount of cell surface-associated p185^Her-2/neu was quantified by flow cytometric analyses using a specific antibody against the extracellular domain of p185^Her-2/neu (Ab-5), as described herein. The mean fluorescence signal±SD (n=3) was quantified using the geo mean fluorescence (GM) parameter provided with the Cell Quest Software (Becton Dickinson). […] After labeling, cells were washed thoroughly, and localization of p185^Her-2/neu was detected by indirect immunofluorescence by incubating with FITC-conjugated anti-mouse IgG. After counterstaining with DAPI, cells were examined and photographed using a Zeiss fluorescent microscope equipped with a built-in camera. […] Before experiments, cells were serum-starved overnight and then cultured in IMEM containing 0.1% FBS in the absence or presence of GLA (Sigma Chemical Co., St. Louis, Mo.). GLA was prepared at a concentration of 1 mg/mL in ethanol and was added to a final concentration of 0, 5, 10, or 20 μg/mL; an equal volume of ethanol was added to control cells. […] A) Cell surface expression of Her-2/neu protein in BT-474 and SK-Br3 cells was determined by flow cytometry using a mouse anti-Her-2/neu antibody directed against the extracellular domain of the p185^Her-2/neu oncoprotein (clone Ab-5; Oncogene Research Products; San Diego, Calif.). Briefly, after GLA or control treatment, cells were washed, harvested, resuspended in phosphate-buffered saline (PBS) containing 1% FBS, and incubated with 5 μg/mL Ab-5 antibody for 1 hour at 4° C. The cells were washed again and then incubated with a fluorescein isothiocyanate (FITC)-conjugated anti-mouse IgG secondary antibody (Jackson ImnunoResearch Laboratories, West Grove, Pa.) diluted 1:200 in cold PBS containing 1% FBS for 45 minutes at 4° C. The cells were washed once more in cold PBS, and flow cytometric analysis was performed with a FACScalibur flow cytometer (Becton Dickinson, San Diego, Calif.) equipped with Cell Quest Software (Becton Dickinson). […] As a control for nonspecific immunofluorescence, cells were stained with the secondary antibody alone (solid black line). The mean fluorescence signal associated with cells for labeled p185^Her-2/neu was quantified using the Geo Mean (GM) fluorescence parameter provided with the software. […] B) Immunoblot analysis of Her-2/neu and PEA3 proteins in control- and GLA-treated BT-474 and SK-Br3 cells. […] Immunoreactive bands were detected by enhanced chemiluminescence reagent (Pierce, Rockford, Ill.). Blots were reprobed with an anti-β-actin goat polyclonal antibody (Santa Cruz Biotechnology) to control for protein loading and transfer. Densitometric values of protein bands were quantified using Scion Imaging Software (Scion Corp., Frederick, Md.).

[2] = tested on: Lipogenic Cells; assay: Effect of fatty acids, lipogenic cells (Table 2); assay type: cell-based
[3] = tested on: Breast Cancer Cells; assay: Effect of fatty acids, breast cancer cells (Table 2); assay type: cell-based; details: FAS named only for oleic acid

## Cc1c(C)c2c(c(C)c1O)CCC(C)(CCCC(C)CCCC(C)CCCC(C)C)O2 (racemic) [vitamin E, dl-α-tocopherol, reference compound]
[1]
  prevention of OA-induced suppression of Her-2/neu overexpression: not significantly prevented

## CCC=CCC=CCC=CCCCCCCCC(=O)O [ω-3 Alpha-Linolenic acid, 9,12,15-octadecatrienoic acid]
[2]
  Effect of Fatty Acids: Lipogenic Cells: No effect
[3]
  Effect of Fatty Acids: Breast Cancer Cells: Potent Down-regulator

## CCC=CCC=CCC=CCC=CCC=CCC=CCCC(=O)O [ω-3 Docosahexaenoic acid, 4,7,10,13,16,19-docosahexaenoic acid, reference compound]
[2]
  Effect of Fatty Acids: Lipogenic Cells: No effect
[3]
  Effect of Fatty Acids: Breast Cancer Cells: Weak Down-regulator

## CCC=CCC=CCC=CCC=CCC=CCCCC(=O)O [ω-3 Eicosapentaenoic acid, 5,8,11,14,17-eicosapentaenoic acid, reference compound]
[2]
  Effect of Fatty Acids: Lipogenic Cells: Down-regulator
[3]
  Effect of Fatty Acids: Breast Cancer Cells: No effect

## CCCCCC=CCC=CCCCCCCCC(=O)O [ω-6 Linoleic acid, 9,12-octadecadienoic acid, reference compound]
[2]
  Effect of Fatty Acids: Lipogenic Cells: Potent
[3]
  Effect of Fatty Acids: Breast Cancer Cells: No effect
